Experimental data as given in patent publication US8987256B2, “Oxo-heterocyclic substituted carboxylic acid derivatives and the use thereof” (Bayer Intellectual Property GmbH, priority 2008, dated 2015).

Experiments:
[1] = target: T1, recombinant guanylate cyclase reporter cell line (Rattus norvegicus, UniProt P20595); test: sGC-activating activity in the CHO reporter cell in vitro; type: cell-based
T1 construct: expressed in transfected cells; host or cells: CHO reporter cell line
T1 sequence (P20595 1-619): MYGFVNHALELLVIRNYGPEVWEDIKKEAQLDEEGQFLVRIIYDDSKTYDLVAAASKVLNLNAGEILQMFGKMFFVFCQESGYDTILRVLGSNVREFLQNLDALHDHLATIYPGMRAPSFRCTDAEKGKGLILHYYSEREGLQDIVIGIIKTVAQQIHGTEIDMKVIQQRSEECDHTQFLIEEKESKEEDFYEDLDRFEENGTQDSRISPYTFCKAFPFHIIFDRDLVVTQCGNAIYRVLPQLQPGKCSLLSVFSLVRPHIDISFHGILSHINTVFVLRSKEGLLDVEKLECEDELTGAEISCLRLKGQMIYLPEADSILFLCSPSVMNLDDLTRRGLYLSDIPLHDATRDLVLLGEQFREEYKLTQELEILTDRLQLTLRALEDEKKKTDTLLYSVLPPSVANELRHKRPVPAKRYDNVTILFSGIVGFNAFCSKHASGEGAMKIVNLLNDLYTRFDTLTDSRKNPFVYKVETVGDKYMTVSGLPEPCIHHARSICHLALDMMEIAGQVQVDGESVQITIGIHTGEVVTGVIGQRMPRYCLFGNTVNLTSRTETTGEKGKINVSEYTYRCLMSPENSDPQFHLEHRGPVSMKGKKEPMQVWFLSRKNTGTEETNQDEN
T1 sequence (P19686 1-690 partner): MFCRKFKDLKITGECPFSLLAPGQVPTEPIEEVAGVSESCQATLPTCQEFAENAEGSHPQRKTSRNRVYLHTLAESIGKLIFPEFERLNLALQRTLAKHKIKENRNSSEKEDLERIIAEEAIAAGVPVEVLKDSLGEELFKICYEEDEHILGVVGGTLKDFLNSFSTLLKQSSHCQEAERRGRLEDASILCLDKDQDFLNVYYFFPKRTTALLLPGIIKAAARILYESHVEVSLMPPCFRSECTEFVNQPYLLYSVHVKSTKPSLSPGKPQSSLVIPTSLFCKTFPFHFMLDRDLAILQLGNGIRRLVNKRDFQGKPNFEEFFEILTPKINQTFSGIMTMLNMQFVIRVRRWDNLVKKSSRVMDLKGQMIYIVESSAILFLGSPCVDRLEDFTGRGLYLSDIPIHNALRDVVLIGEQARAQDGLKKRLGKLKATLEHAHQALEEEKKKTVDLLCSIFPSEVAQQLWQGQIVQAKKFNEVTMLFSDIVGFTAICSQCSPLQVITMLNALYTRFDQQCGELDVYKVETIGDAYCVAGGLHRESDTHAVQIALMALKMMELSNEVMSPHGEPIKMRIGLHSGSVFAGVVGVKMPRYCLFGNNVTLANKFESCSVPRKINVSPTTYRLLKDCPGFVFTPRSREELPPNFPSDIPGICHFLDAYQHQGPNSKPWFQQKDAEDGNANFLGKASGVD
Description: The cellular action of the compounds according to the invention is determined at a recombinant guanylate cyclase reporter cell line, as described in F. Wunder et al., Anal. Biochem. 339, 104-112 (2005).

[2] = target: T2, soluble guanylate cyclase (sGC) (Rattus norvegicus, UniProt P20595); test: Activating action at the sGC enzyme in vitro (PPi detection, luciferase); type: biochemical; conditions: for EC50: read-out: EC50 (concentration at 50% of maximum efficacy), activating action at the sGC enzyme
T2 construct: made in house; host or cells: baculovirus/Sf9 insect cells
T2 sequence (P20595 1-619): T1 sequence (P20595 1-619)
T2 sequence (P19686 1-690 partner): T1 sequence (P19686 1-690 partner)
Description: Soluble guanylate cyclase (sGC) converts on stimulation GTP into cGMP and pyrophosphate (PPi). PPi is detected with the aid of the assay described below. The signal produced in the assay increases as the reaction progresses and serves as a measure of the sGC enzyme activity under the given stimulation.
To carry out the assay, 29 μl of enzyme solution [0-10 nM soluble guanylate cyclase (prepared according to Honicka et al., J. Mol. Med. 77, 14-23 (1999)) in 50 mM TEA, 2 mM MgCl2, 0.1% BSA (fraction V), 0.005% Brij®, pH 7.5] are initially introduced into a microplate, and 1 μl of the substance to be tested (as a serially diluted solution in DMSO) is added. The mixture is incubated at room temperature for 10 min. Then 20 μl of detection mix [1.2 nM Firefly Luciferase (Photinus pyralis luciferase, Promega), 29 μM dehydroluciferin (prepared according to Bitler & McElroy, Arch. Biochem. Biophys. 72, 358 (1957)), 122 μM luciferin (Promega), 153 μM ATP (Sigma) and 0.4 mM DTT (Sigma) in 50 mM TEA, 2 mM MgCl2, 0.1% BSA (fraction V), 0.005% Brij®, pH 7.5] are added. The enzyme reaction is started by adding 20 μl of substrate solution [1.25 mM guanosine 5′-triphosphate (Sigma) in 50 mM TEA, 2 mM MgCl2, 0.1% BSA (fraction V), 0.005% Brij®, pH 7.5] and measured continuously in a luminometer. The extent of the stimulation by the substance to be tested can be determined relative to the signal of the unstimulated reaction.
The activation of heme-free guanylate cyclase is examined by addition of 25 μM of 1H-1,2,4-oxadiazolo[4,3-a]quinoxalin-1-one (ODQ) to the enzyme solution and subsequent incubation for 30 minutes and compared to the stimulation of the native enzyme.

[3] = system: saphenous artery rings; test: Vasorelaxant effect in vitro (phenylephrine-contracted artery rings); design: species or system Rabbits; conditions: Oryctolagus cuniculus, concentration reducing phenylephrine-induced contraction by 50%
Description: Rabbits are anesthetized and sacrificed by intravenous injection of thiopental sodium (about 50 mg/kg) and exsanguinated. The saphenous artery is removed and divided into rings 3 mm wide. The rings are mounted singly on in each case a pair of triangular hooks open at the end and made of 0.3 mm-thick special wire (Remanium®). Each ring is placed under an initial tension in 5 ml organ baths with Krebs-Henseleit solution which is at 37° C., is gassed with carbogen and has the following composition: NaCl 119 mM; KCl 4.8 mM; CaCl2×2H2O 1 mM; MgSO4×7H2O 1.4 mM; KH2PO4 1.2 mM; NaHCO3 25 mM; glucose 10 mM; bovine serum albumin 0.001%. The force of contraction is detected with Statham UC2 cells, amplified and digitized via A/D converters (DAS-1802 HC, Keithley Instruments, Munich) and recorded in parallel on chart recorders. Contractions are induced by addition of phenylephrine.
After several (generally 4) control cycles, the substance to be investigated is added in each further run in increasing dosage, and the level of the contraction achieved under the influence of the test substance is compared with the level of the contraction reached in the last preceding run. The concentration necessary to reduce the contraction reached in the preceding control by 50% is calculated from this (IC50). The standard application volume is 5 μl. The proportion of DMSO in the bath solution corresponds to 0.1%.

O=C(Nc1cccc(CC2(C(=O)O)CC2)c1)C(c1ccc(CN2N=C(c3ccccc3)OCC2=O)cc1)C1CCC(F)(F)C1 (single isomer, unassigned) [Example 241, 1-(3-{[(3,3-Difluorocyclopentyl) {4-[(5-oxo-2-phenyl-5,6-dihydro-4H-1,3,4-oxadiazin-4-yl)-methyl]phenyl}acetyl]amino}benzyl)cyclopropanecarboxylic acid]
MEC (minimum effective concentration), sGC-activating activity in the CHO reporter cell [1]: 3 nM | MEC (minimum effective concentration), activating action at the sGC enzyme [2]: 1.2 nM | EC50 [2]: 17 nM

CCC(C)C(C(=O)Nc1cccc(CC(C)(C)C(=O)O)c1)c1ccc(CN2N=C(c3ccccc3)OCC2=O)cc1 (centres unmarked) [Example 143, 2,2-dimethyl-3-{3-[(3-methyl-2-{4-[(5-oxo-2-phenyl-5,6-dihydro-4H-1,3,4-oxadiazin-4-yl)methyl]phenyl}-pentanoyl)amino]phenyl}propanoic acid]
IC50 [3]: 345 nM | MEC (minimum effective concentration), sGC-activating activity in the CHO reporter cell [1]: 3 nM

CCC(C(C(=O)Nc1cccc(CC2(C(=O)O)CC2)c1)c1ccc(CN2N=C(c3ccccc3)OCC2=O)cc1)C(F)(F)F (centres unmarked) [Example 170, 1-(3-{[2-{4-[(5-oxo-2-phenyl-5,6-dihydro-4H-1,3,4-oxadiazin-4-yl)methyl]phenyl}-3-(trifluoromethyl)-pentanoyl]amino}benzyl)cyclopropanecarboxylic acid]
MEC (minimum effective concentration), sGC-activating activity in the CHO reporter cell [1]: 3 nM | MEC (minimum effective concentration), activating action at the sGC enzyme [2]: 1 nM | EC50 [2]: 11 nM

Cc1ccc(=O)n(Cc2ccc(C(C(=O)Nc3cccc(CC4(C(=O)O)CC4)c3)C3CCCC3)cc2)n1 (centres unmarked) [Example 171, 1-{3-[(cyclopentyl{4-[(3-methyl-6-oxopyridazin-1(6H)-yl)methyl]phenyl}acetyl)amino]benzyl}-cyclopropanecarboxylic acid]
MEC (minimum effective concentration), sGC-activating activity in the CHO reporter cell [1]: 30 nM | MEC (minimum effective concentration), activating action at the sGC enzyme [2]: 3.7 nM | EC50 [2]: 59 nM

O=C(Nc1cccc(CC2(C(=O)O)CC2)c1)C(c1ccc(Cn2ccc(C(F)(F)F)cc2=O)cc1)C1CCCC1 (centres unmarked) [Example 176, 1-(3-{[cyclopentyl(4-{[2-oxo-4-(trifluoromethyl)-pyridin-1(2H)-yl]methyl}phenyl)acetyl]amino}-benzyl)cyclopropanecarboxylic acid]
MEC (minimum effective concentration), sGC-activating activity in the CHO reporter cell [1]: 30 nM | MEC (minimum effective concentration), activating action at the sGC enzyme [2]: 10 nM | EC50 [2]: 320 nM

CC(C(C(=O)Nc1cccc(CCC(=O)O)c1Cl)c1ccc(CN2N=C(c3ccccc3)OCC2=O)cc1)C(F)(F)F (centres unmarked) [Example 184, 3-{2-chloro-3-[(4,4,4-trifluoro-3-methyl-2-{4-[(5-oxo-2-phenyl-5,6-dihydro-4H-1,3,4-oxadiazin-4-yl)methyl]-phenyl}butanoyl)amino]phenyl}propanoic acid]
MEC (minimum effective concentration), sGC-activating activity in the CHO reporter cell [1]: 3 nM | MEC (minimum effective concentration), activating action at the sGC enzyme [2]: 7 nM | EC50 [2]: 240 nM

C[C@H]([C@H](C(=O)Nc1cccc(CC2(C(=O)O)CC2)c1)c1ccc(CN2Cc3ccccc3C2=O)cc1)C(F)(F)F [Example 207]
MEC (minimum effective concentration), sGC-activating activity in the CHO reporter cell [1]: 3 nM | MEC (minimum effective concentration), activating action at the sGC enzyme [2]: 0.5 nM | EC50 [2]: 11 nM

O=C(Nc1cccc(CC2(C(=O)O)CC2)c1)C(c1ccc(CN2Cc3c(F)cccc3C2=O)cc1)C1CCCC1 (centres unmarked) [Example 213]
MEC (minimum effective concentration), sGC-activating activity in the CHO reporter cell [1]: 3 nM | MEC (minimum effective concentration), activating action at the sGC enzyme [2]: 1.2 nM | EC50 [2]: 24 nM

C[C@H]([C@H](C(=O)Nc1cccc(CC2(C(=O)O)CC2)c1)c1ccc(CN2Cc3c(F)cccc3C2=O)cc1)C(F)(F)F [Example 219]
MEC (minimum effective concentration), sGC-activating activity in the CHO reporter cell [1]: 0.2 nM | MEC (minimum effective concentration), activating action at the sGC enzyme [2]: 0.2 nM | EC50 [2]: 3.6 nM

C[C@@H]([C@@H](C(=O)Nc1cccc(CC2(C(=O)O)CC2)c1)c1ccc(CN2Cc3c(F)cccc3C2=O)cc1)C(F)(F)F [Example 220]
MEC (minimum effective concentration), sGC-activating activity in the CHO reporter cell [1]: 0.3 nM | MEC (minimum effective concentration), activating action at the sGC enzyme [2]: 2 nM | EC50 [2]: 75 nM

O=C(O)CCc1cc(F)cc(NC(=O)C(c2ccc(CN3N=C(c4ccccc4)OCC3=O)cc2)C2CCCC2)c1 (centres unmarked) [Example 230]
MEC (minimum effective concentration), sGC-activating activity in the CHO reporter cell [1]: 30 nM | MEC (minimum effective concentration), activating action at the sGC enzyme [2]: 8.1 nM | EC50 [2]: 420 nM

O=C(Nc1cc(CC2(C(=O)O)CC2)ccc1F)C(c1ccc(CN2N=C(c3ccccc3)OCC2=O)cc1)C1CCCC1 (centres unmarked) [Example 231]
MEC (minimum effective concentration), sGC-activating activity in the CHO reporter cell [1]: 0.2 nM | MEC (minimum effective concentration), activating action at the sGC enzyme [2]: 0.4 nM | EC50 [2]: 5.2 nM

O=C(O)CCc1cc(NC(=O)C(c2ccc(CN3N=C(c4ccccc4)OCC3=O)cc2)C2CCCC2)ccc1F (centres unmarked) [Example 232]
MEC (minimum effective concentration), sGC-activating activity in the CHO reporter cell [1]: 20 nM | MEC (minimum effective concentration), activating action at the sGC enzyme [2]: 93 nM | EC50 [2]: 1100 nM

O=C(Nc1cccc(CC2(C(=O)O)CC2)c1F)C(c1ccc(CN2N=C(c3ccccc3)OCC2=O)cc1)C1CCCC1 (centres unmarked) [Example 233]
MEC (minimum effective concentration), sGC-activating activity in the CHO reporter cell [1]: 0.3 nM | MEC (minimum effective concentration), activating action at the sGC enzyme [2]: 3.3 nM | EC50 [2]: 78 nM

O=C(Nc1ccc(F)c(CC2(C(=O)O)CC2)c1)C(c1ccc(CN2N=C(c3ccccc3)OCC2=O)cc1)C1CCCC1 (centres unmarked) [Example 234]
MEC (minimum effective concentration), sGC-activating activity in the CHO reporter cell [1]: 1 nM | MEC (minimum effective concentration), activating action at the sGC enzyme [2]: 4.1 nM | EC50 [2]: 220 nM
